Source: patent publication US20110053923A1, “CHEMICAL COMPOUNDS 610” (AstraZeneca, priority 2008, published 2011)
Where two headings read alike, the source gives them in different places.

Tests used:
[1] = tested on: HT29 cells; test: Cellular SRB assay (Test (d)), potentiation of carboplatin; assay type: cell-based; conditions: for IC50: geometric mean
Method: (d) Cellular—SRB Assay The potentiation factor (PF50) for compounds is a measure of the fold increase in effect of a chemotherapeutic agent, when used in combination with an ATR inhibitor. Specifically, this is calculated as a ratio of the IC50 of control cell growth in the presence of a chemotherapeutic agent, typically carboplatin, divided by the IC50 of cell growth in the presence of this agent and the ATR inhibitor of interest. For this purpose, HT29 cells were seeded at the appropriate density to ensure exponential growth throughout the time of the assay (typically 1000-1500 cells) in each well of a 96-well plate, in a volume of 80 μl and incubated overnight at 37° C. Subsequently, cells were dosed with either DMSO vehicle, or treated with test compounds at fixed concentrations (typically 1, 0.3 & 0.1 μM). Following a one hour incubation at 37° C., the cells were further treated with a 10 point dose response of the chemotherapeutic agent, based on it's known sensitivity (typically 30-0.001 ug/ml for carboplatin). Cells were left to grow for 5 days at 37° C., after which time cell growth was assessed using the sulforhodamine B (SRB) assay (Skehan, P et al, 1990 New colorimetric cytotoxic assay for anticancer-drug screening. J. Natl. Cancer Inst. 82, 1107-1112.). Specifically, the media was removed and cells fixed with 100 μl of ice cold 10% (w/v) trichloroacetic acid. The plates were then incubated at 4° C. for 20 minutes prior to washing 4 times with water. Each well was then stained with 100 μL of 0.4% (w/v) SRB in 1% acetic acid for 20 minutes before a further 4 washes with 1% acetic acid. Plates were then dried for 2 hours at room temperature and the dye was solubilized by the addition of 100 μL Tris Base pH 8.5 into each well. Plates were shaken before measuring optical density at 564 nm (OD564). In order to calculate the PF50, the OD564 values obtained for the dose-response curve of chemotherapeutic agent were expressed as a percentage of the value obtained from cells treated with vehicle alone. Similarly, to act as a control for inclusion of the ATR inhibitor, values from the chemotherapeutic agent tested in combination with a fixed ATR inhibitor concentration were expressed as a percentage of the value obtained from cells treated with the corresponding concentration of ATR inhibitor alone. From these internally-controlled curves, IC50 values were calculated and the PF50 was determined as the ratio of these values, as described above. Compounds are compared using the PF50 value at concentrations of ATR inhibitor that show minimal growth inhibition on their own.

[2] = molecular target: T1, ATR (Homo sapiens, UniProt Q13535); test: Enzyme Assay - ATR (Test (a)); assay type: biochemical; conditions: ATR immunoprecipitated from HeLa nuclear extract; 3 μM ATP; average of individual tests; read-out: ATR average IC50;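 also: kinase activity of bead-bound ATR toward a GST-p53 N-terminal fragment substrate, 1 h at 37 °C, read by chemiluminescence, with inhibitor-free wells as control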
T1 construct: obtained from HeLa nuclear extract (CIL Biotech, Mons, Belgium) by immunoprecipitation with rabbit polyclonal antiserum raised to amino acids 400-480 of ATR; host or cells: HeLa nuclear extract
T1 sequence (Q13535 whole entry, the tested form may be a part): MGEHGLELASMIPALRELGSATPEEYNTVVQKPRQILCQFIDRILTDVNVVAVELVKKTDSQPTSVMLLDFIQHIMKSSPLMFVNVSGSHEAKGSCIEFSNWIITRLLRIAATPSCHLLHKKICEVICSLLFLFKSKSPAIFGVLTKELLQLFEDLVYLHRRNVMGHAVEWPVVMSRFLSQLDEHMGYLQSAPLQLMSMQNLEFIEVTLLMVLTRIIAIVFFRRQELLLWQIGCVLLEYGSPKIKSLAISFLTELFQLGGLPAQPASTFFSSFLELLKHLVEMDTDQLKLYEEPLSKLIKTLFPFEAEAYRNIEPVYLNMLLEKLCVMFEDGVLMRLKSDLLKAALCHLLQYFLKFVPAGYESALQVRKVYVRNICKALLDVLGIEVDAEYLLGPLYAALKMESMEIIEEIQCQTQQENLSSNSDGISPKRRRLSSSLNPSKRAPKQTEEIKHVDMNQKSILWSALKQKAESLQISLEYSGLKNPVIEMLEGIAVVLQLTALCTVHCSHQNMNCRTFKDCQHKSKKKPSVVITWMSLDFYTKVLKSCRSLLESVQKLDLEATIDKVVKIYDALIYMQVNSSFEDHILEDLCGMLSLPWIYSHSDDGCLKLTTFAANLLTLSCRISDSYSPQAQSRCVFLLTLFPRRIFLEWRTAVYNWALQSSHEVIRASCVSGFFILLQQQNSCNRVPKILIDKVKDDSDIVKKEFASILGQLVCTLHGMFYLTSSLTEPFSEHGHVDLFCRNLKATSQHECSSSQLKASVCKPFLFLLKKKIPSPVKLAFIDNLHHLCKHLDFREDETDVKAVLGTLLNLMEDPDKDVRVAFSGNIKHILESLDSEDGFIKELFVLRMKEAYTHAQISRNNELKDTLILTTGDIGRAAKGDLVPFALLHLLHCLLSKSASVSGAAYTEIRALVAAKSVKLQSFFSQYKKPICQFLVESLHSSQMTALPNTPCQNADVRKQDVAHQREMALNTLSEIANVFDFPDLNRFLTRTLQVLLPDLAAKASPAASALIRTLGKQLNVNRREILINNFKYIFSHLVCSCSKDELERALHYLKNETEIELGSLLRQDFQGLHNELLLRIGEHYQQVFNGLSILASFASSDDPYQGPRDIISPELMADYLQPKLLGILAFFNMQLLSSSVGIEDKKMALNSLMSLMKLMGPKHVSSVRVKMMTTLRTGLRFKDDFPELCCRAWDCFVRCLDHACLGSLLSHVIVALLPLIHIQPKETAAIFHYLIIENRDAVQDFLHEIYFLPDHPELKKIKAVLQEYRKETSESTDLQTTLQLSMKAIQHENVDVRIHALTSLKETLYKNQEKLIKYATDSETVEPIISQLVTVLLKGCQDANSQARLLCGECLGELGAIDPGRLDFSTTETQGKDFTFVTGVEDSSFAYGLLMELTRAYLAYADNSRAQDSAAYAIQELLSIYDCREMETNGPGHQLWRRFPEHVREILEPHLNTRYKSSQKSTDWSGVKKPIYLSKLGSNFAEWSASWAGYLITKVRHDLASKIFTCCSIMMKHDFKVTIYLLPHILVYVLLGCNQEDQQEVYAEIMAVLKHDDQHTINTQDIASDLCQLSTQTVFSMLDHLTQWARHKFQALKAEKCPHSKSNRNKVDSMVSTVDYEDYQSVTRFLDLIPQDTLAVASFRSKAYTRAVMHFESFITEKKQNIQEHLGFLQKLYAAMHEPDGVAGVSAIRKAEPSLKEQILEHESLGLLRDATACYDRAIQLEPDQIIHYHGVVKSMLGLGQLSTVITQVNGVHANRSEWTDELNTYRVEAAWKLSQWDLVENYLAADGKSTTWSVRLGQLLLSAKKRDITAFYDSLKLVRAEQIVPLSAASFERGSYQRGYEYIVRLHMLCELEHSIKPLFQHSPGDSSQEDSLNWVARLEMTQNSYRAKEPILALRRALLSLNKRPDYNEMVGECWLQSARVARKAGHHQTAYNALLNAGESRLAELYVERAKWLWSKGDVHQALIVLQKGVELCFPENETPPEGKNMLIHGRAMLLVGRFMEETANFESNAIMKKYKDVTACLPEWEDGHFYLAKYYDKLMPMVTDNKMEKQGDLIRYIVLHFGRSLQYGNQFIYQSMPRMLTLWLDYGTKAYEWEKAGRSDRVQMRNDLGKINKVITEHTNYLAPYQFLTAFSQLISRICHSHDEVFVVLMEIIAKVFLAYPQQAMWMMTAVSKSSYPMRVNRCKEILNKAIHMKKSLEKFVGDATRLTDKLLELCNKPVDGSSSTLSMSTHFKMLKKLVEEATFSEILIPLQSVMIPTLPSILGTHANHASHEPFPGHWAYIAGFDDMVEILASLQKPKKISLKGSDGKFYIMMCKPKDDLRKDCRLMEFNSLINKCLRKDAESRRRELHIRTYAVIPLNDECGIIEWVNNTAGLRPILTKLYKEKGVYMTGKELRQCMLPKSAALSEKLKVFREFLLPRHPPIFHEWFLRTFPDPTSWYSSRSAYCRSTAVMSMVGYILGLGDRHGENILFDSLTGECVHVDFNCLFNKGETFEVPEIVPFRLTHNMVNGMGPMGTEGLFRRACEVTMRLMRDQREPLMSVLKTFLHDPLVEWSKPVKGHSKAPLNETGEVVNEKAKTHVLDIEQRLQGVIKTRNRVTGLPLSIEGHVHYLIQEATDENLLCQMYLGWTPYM
T1 sequence (Q8WXE1 whole entry partner, the tested form may be a part): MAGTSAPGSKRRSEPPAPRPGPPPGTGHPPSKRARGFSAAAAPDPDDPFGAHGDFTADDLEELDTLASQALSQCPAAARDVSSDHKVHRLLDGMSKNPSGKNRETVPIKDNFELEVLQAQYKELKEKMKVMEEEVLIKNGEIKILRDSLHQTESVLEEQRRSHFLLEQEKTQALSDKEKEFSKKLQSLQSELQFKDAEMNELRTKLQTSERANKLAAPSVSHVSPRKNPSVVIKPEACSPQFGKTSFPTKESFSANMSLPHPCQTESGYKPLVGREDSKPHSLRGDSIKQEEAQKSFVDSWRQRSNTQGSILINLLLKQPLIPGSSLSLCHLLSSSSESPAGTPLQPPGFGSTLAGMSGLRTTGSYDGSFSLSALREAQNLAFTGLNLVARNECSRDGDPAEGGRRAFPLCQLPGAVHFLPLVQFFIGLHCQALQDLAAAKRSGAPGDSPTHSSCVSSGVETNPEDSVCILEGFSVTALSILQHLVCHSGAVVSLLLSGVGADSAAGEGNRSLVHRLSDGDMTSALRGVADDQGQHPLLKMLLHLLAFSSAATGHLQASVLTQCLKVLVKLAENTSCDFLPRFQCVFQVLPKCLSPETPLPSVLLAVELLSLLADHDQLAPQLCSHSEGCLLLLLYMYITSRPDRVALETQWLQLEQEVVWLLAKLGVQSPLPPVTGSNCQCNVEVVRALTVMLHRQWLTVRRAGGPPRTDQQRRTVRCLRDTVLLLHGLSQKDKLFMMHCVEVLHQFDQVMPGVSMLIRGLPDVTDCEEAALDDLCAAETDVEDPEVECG

[3] = molecular target: mTOR (Homo sapiens, UniProt P42345); test: Enzyme - mTOR Kinase Assay (Echo); assay type: biochemical; conditions: recombinant FLAG-tagged mTOR (1362-2549); AlphaScreen; ATP 20 μM;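 also: enzyme expressed in HEK293 cells, 2 h incubation at room temperature, read-out is phosphorylation of a biotinylated peptide substrate detected with an anti-phospho p70 S6 Kinase (T389) antibody, inhibition lowers signal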
mTOR, sequence (P42345 1362-2549): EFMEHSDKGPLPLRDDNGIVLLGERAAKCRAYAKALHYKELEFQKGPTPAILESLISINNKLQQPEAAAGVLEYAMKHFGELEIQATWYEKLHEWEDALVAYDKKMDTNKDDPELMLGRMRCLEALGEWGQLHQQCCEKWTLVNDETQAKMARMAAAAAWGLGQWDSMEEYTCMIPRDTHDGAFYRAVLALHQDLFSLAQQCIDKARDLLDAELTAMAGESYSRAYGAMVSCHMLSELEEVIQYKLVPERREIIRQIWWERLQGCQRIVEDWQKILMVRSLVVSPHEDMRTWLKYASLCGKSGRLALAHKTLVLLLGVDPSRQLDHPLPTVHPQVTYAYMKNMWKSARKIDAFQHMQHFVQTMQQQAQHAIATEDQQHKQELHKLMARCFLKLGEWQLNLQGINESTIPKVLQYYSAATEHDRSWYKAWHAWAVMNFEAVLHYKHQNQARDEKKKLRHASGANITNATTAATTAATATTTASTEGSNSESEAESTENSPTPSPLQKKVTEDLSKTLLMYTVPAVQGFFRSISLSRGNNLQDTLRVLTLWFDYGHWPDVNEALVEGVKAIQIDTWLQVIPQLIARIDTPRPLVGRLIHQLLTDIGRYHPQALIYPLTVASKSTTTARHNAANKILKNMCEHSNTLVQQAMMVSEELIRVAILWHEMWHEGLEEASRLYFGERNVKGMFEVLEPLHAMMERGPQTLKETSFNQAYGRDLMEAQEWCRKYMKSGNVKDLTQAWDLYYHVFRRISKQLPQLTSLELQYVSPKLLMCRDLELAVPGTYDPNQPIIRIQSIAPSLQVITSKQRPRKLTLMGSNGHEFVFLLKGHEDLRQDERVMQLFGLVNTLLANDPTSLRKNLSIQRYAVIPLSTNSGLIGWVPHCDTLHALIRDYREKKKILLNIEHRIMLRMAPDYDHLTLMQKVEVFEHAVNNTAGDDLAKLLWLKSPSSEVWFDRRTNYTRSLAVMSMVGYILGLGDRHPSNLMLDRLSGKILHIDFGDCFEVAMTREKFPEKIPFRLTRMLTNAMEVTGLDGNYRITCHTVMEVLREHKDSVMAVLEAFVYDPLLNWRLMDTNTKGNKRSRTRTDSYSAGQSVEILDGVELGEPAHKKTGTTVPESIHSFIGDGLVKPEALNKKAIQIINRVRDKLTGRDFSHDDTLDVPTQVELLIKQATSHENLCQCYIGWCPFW

Row | Compound | IC50 [2] [nM] | IC50 [3] [nM] | other results
1 | N.N.O=C([O-])C1(C(=O)[O-])CCC1.[Pt+2] [Carboplatin, reference compound] |  |  | IC50 ([1]; Carboplatin alone, 5 days growth): 3.97 µg/mL
2 | C[C@@H]1COCCN1c1cc(C2(S(C)(=O)=O)CC2)nc(-c2cccc3[nH]ccc23)n1 [Example 3.01, 4-{4-[(3R)-3-Methylmorpholin-4-yl]-6-[1-(methylsulfonyl)cyclopropyl]pyrimidin-2-yl}-1H-indole] |  |  | IC50 ([1]; Homo sapiens, HT-29, 120 h, Carboplatin + 0.1 uM Example 3.01, 5 days growth, read-out: IC50): 1.96 µg/mL; IC50 ([1]; Homo sapiens, HT-29, 120 h, Carboplatin + 0.3 uM Example 3.01, 5 days growth, read-out: IC50): 0.39 µg/mL; PF50 ([1]; potentiation factor of Carboplatin by 0.1 uM Example 3.01 (ratio of IC50 values)): 2.02; PF50 ([1]; potentiation factor of Carboplatin by 0.3 uM Example 3.01 (ratio of IC50 values)): 10.08
3 | C[C@@H]1COCCN1c1cc(C2(S(C)(=O)=O)CCOCC2)nc(-c2cccc3[nH]ccc23)n1 [Example 3.08, 4-{4-[(3R)-3-Methylmorpholin-4-yl]-6-[4-(methylsulfonyl)tetrahydro-2H-pyran-4-yl]pyrimidin-2-yl}-1H-indole] | 2.32 | 225 | 
4 | Cc1cc(-c2nc(N3CCOC[C@H]3C)cc(C3(S(C)(=O)=O)CCOCC3)n2)c2cc[nH]c2c1 [Example 3.09, 6-Methyl-4-{4-[(3R)-3-methylmorpholin-4-yl]-6-[4-(methylsulfonyl)tetrahydro-2H-pyran-4-yl]pyrimidin-2-yl}-1H-indole] | 1.58 | 451 | 
5 | Cc1cc2c(-c3nc(N4CCOC[C@H]4C)cc(C4(S(C)(=O)=O)CCOCC4)n3)cccc2[nH]1 [Example 3.10, 2-Methyl-4-{4-[(3R)-3-methylmorpholin-4-yl]-6-[4-(methylsulfonyl)tetrahydro-2H-pyran-4-yl]pyrimidin-2-yl}-1H-indole] | 3.58 | 145 | 
6 | COc1cc(-c2nc(N3CCOC[C@H]3C)cc(C3(S(C)(=O)=O)CCOCC3)n2)c2cc[nH]c2c1 [Example 3.11, 6-Methoxy-4-{4-[(3R)-3-methylmorpholin-4-yl]-6-[4-(methylsulfonyl)tetrahydro-2H-pyran-4-yl]pyrimidin-2-yl}-1H-indole] | 1.58 | 77.9 | 
7 | C[C@@H]1COCCN1c1cc(C2(S(C)(=O)=O)CCOCC2)nc(-c2cc(Cl)cc3[nH]ccc23)n1 [Example 3.12] | 2.5 | 420 | 
8 | C[C@@H]1COCCN1c1cc(C2(S(C)(=O)=O)CCOCC2)nc(-c2cc(F)cc3[nH]ccc23)n1 [Example 3.13, 6-fluoro-4-{4-[(3R)-3-methylmorpholin-4-yl]-6-[4-(methylsulfonyl)tetrahydro-2H-pyran-4-yl]pyrimidin-2-yl}-1H-indole] | 1.53 | 250 | 
9 | C[C@@H]1COCCN1c1cc(C2(S(C)(=O)=O)CCOCC2)nc(-c2cc(C#N)cc3[nH]ccc23)n1 [Example 3.14, 4-{4-[(3R)-3-methylmorphohn-4-yl]-6-[4-(methylsulfonyl)tetrahydro-2H-pyran-4-yl]pyrimidin-2-yl}-1H-indole-6-carbonitrile] | 14.2 | 692 | 
10 | C[C@@H]1COCCN1c1cc(C2(S(C)(=O)=O)CCNCC2)nc(-c2cccc3[nH]ccc23)n1 [Example 3.15, 4-{4-[(3R)-3-Methylmorpholin-4-yl]-6-[4-(methylsulfonyl)piperidin-4-yl]pyrimidin-2-yl}-1H-indole] | 2.55 | 980 | 
11 | C[C@@H]1COCCN1c1cc(C2(S(C)(=O)=O)CCC2)nc(-c2cccc3[nH]ccc23)n1 [Example 3.16, 4-{4-[(3R)-3-Methylmorpholin-4-yl]-6-[1-(methylsulfonyl)cyclobutyl]pyrimidin-2-yl}-1H-indole] | 1.99 | 85.8 | 
12 | C[C@@H]1COCCN1c1cc(C2(S(=O)(=O)C3CC3)CC2)nc(-c2cccc3[nH]ccc23)n1 [Example 3.17, 4-{4-[1-(Cyclopropylsulfonyl)cyclopropyl]-6-[(3R)-3-methylmorpholin-4-yl]pyrimidin-2-yl}-1H-indole] | 2.26 | 97.8 | 
13 | C[C@@H]1COCCN1c1cc(C2(S(=O)(=O)C3CC3)CCNCC2)nc(-c2cccc3[nH]ccc23)n1 [Example 3.18, 4-{4-[4-(Cyclopropylsulfonyl)piperidin-4-yl]-6-[(3R)-3-methylmorpholin-4-yl]pyrimidin-2-yl}-1H-indole] | 7.62 | 383 | 
14 | C[C@@H]1COCCN1c1cc(C2(S(=O)(=O)C3CC3)CCOCC2)nc(-c2cccc3[nH]ccc23)n1 [Example 3.19, 4-{4-[4-(Cyclopropylsulfonyl)tetrahydro-2H-pyran-4-yl]-6-[(3R)-3-methylmorpholin-4-yl]pyrimidin-2-yl}-1H-indole] | 97.6 | 2820 | 
15 | CCS(=O)(=O)C1(c2cc(N3CCOC[C@H]3C)nc(-c3cccc4[nH]ccc34)n2)CC1 [Example 3.20, 4-{4-[1-(Ethylsulfonyl)cyclopropyl]-6-[(3R)-3-methylmorpholin-4-yl]pyrimidin-2-yl}-1H-indole] | 2.5 | 71.1 | 
16 | CCS(=O)(=O)C1(c2cc(N3CCOC[C@H]3C)nc(-c3cccc4[nH]ccc34)n2)CCOCC1 [Example 3.21, 4-{4-[4-(Ethylsulfonyl)tetrahydro-2H-pyran-4-yl]-6-[(3R)-3-methylmorpholin-4-yl]pyrimidin-2-yl}-1H-indole] | 6.89 | 686 | 
17 | CCS(=O)(=O)C1(c2cc(N3CCOC[C@H]3C)nc(-c3cccc4[nH]ccc34)n2)CCNCC1 [Example 3.22, 4-{4-[4-(Ethylsulfonyl)piperidin-4-yl]-6-[(3R)-3-methylmorpholin-4-yl]pyrimidin-2-yl}-1H-indole] | 8.19 | 556 | 
18 | CC(C)S(=O)(=O)C1(c2cc(N3CCOC[C@H]3C)nc(-c3cccc4[nH]ccc34)n2)CC1 [Example 3.23, 4-(4-{1-[(1-Methylethyl)sulfonyl]cyclopropyl}-6-[(3R)-3-methylmorpholin-4-yl]pyrimidin-2-yl)-1H-indole] | 2.47 | 89.1 | 
19 | CC(C)S(=O)(=O)C1(c2cc(N3CCOC[C@H]3C)nc(-c3cccc4[nH]ccc34)n2)CCOCC1 [Example 3.24, 4-(4-{4-[(1-Methylethyl)sulfonyl]tetrahydro-2H-pyran-4-yl}-6-[(3R)-3-methylmorpholin-4-yl]pyrimidin-2-yl)-1H-indole] | 261 | 6150 | 
20 | CC(C)S(=O)(=O)C1(c2cc(N3CCOC[C@H]3C)nc(-c3cccc4[nH]ccc34)n2)CCNCC1 [Example 3.25, 4-(4-{4-[(1-Methylethyl)sulfonyl]piperidin-4-yl}-6-[(3R)-3-methylmorpholin-4-yl]pyrimidin-2-yl)-1H-indole] | 20.6 | 4240 | 
